Assay results taken from PMC8138579, “Screening of Anti-Lipase Components of Artemisia argyi Leaves Based on Spectrum-Effect Relationships and HPLC-MS/MS” (Frontiers in Pharmacology, 2021).
pIC50: −log10 of the molar value.

Molecular target: T1, Porcine pancreatic lipase (type II) (Sus scrofa, UniProt P00591)
T1 construct: gene PNLIP; native commercial porcine pancreas preparation (Sigma-Aldrich, type II), no added colipase stated; human 1LPA used only for docking
T1 sequence (P00591 1-450): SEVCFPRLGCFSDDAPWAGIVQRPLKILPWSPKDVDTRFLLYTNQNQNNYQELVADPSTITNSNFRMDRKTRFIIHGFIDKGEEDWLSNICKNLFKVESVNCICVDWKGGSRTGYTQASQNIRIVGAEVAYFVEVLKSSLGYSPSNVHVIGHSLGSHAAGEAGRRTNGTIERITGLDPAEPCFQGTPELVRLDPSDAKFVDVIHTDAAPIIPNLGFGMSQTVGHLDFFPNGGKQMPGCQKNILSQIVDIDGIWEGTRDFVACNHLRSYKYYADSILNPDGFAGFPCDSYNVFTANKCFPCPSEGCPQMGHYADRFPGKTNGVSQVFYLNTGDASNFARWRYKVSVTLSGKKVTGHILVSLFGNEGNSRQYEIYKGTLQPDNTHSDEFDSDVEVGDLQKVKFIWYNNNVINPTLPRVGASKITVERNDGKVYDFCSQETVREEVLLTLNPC
Test: fluorometric lipase assay, 4-methylumbelliferone release
Assay type: biochemical
Description: fluorometric lipase assay, 4-methylumbelliferone release on Porcine pancreatic lipase (type II) | IC50 values of neochlorogenic acid, chlorogenic acid, isochlorogenic acid B and isochlorogenic acid A

Row | SMILES | pIC50
1 | O=C(/C=C/c1ccc(O)c(O)c1)O[C@@H]1C[C@@](O)(C(=O)O)C[C@@H](O)[C@@H]1O [P1, neochlorogenic acid] | 3.37
2 | O=C(/C=C/c1ccc(O)c(O)c1)O[C@@H]1C[C@](O)(C(=O)O)C[C@@H](O)[C@H]1O [P3, chlorogenic acid] | 3.49
3 | O=C(/C=C/c1ccc(O)c(O)c1)O[C@H]1[C@H](O)C[C@](O)(C(=O)O)C[C@H]1OC(=O)/C=C/c1ccc(O)c(O)c1 [P7, isochlorogenic acid B] | 3.63
4 | O=C(/C=C/c1ccc(O)c(O)c1)O[C@@H]1C[C@](O)(C(=O)O)C[C@@H](OC(=O)/C=C/c2ccc(O)c(O)c2)[C@H]1O [P8, isochlorogenic acid A] | 3.80
